Reference: ChEMBL document CHEMBL5108044, “Discovery of a Novel Potent STAT3 Inhibitor HP590 with Dual p-Tyr705/Ser727 Inhibitory Activity for Gastric Cancer Treatment” (J Med Chem, 2022)
Calls of active or inactive are those of the source. No cut-off for these calls is given here.

Key:
AGS [1] = experiment: Inhibition of colony formation in human AGS cells assessed as reduction in number of colonies incubated for 5 to 7 days by crystal violet staining based assay; type: functional, cell-based; conditions: dose <= 20.0 nM, time 5-7 day, DDE = dose-dependent effect
[2] = target: T1, Signal transducer and activator of transcription 3 (Homo sapiens, UniProt P40763); experiment: Inhibition of STAT3 phosphorylation at Ser727 residue in human MKN-45 cells upto 40 nM incubated upto 24 hrs by Western blotting analysis; type: cell-based
T1 sequence (P40763 whole entry): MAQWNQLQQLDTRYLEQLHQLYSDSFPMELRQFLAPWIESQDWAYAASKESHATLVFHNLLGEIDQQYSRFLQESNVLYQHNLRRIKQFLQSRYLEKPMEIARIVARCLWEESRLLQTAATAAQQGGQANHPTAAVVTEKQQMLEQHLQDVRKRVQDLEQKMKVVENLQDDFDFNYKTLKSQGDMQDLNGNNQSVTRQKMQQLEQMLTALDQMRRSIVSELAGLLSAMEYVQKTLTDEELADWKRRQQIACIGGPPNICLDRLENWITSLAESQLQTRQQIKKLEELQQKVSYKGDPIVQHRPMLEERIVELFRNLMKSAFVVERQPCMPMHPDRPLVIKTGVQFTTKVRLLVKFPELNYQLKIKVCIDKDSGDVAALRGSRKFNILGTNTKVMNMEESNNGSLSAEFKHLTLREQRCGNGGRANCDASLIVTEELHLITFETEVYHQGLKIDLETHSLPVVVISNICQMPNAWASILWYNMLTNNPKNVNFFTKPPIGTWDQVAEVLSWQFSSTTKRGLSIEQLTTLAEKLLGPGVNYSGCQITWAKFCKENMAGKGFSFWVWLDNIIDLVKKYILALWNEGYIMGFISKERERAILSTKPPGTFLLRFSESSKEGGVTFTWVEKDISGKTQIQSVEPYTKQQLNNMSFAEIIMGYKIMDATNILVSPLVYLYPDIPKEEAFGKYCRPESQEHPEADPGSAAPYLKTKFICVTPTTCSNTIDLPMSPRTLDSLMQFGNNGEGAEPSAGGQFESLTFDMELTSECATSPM

[3] = Oral bioavailability in ICR mouse plasma at 10 mg/kg measured up to 24 hrs by LC-MS/MS analysis; type: ADME, organism-based
[4] = Apparent volume of distribution in ICR mouse plasma at 1 mg/kg, iv measured up to 24 hrs by LC-MS/MS analysis; type: ADME, organism-based; conditions: read-out: Vz
MKN-45 [5] = experiment: Induction of apoptosis in human MKN-45 cells assessed as necrotic cells 5 nM incubated for 48 hrs by FITC-annexin V/propidium iodide staining based flow cytometry (reference value: 10.3%); type: functional
[6] = Cmax in ICR mouse plasma at 10 mg/kg, po measured up to 24 hrs by LC-MS/MS analysis; type: ADME, organism-based; set-up: dose 10 mg/kg, time < 24 hrs, route po
[7] = Toxicity in BALB/c nude mouse xenografted with human MKN-45 cells assessed as lung damage at 25 to 50 mg/kg, po qd administered for 5 weeks by H and E staining based analysis; type: organism-based; conditions: in vivo, 840 h, dose 25-50 mg/kg
[8] = target: T1, Signal transducer and activator of transcription 3; experiment: Inhibition of human recombinant STAT3 (127 to 722 residues) transcriptional activity expressed in HEK293T cells in presence of IL-6 by Dual-luciferase reporter gene assay; type: cell-based
[9] = target: T1, Signal transducer and activator of transcription 3; experiment: Inhibition of STAT3 in human AGS cells assessed as downregulation of cyclin D1 expression incubated up to 24 hrs by western blot analysis; type: cell-based; conditions: dose <= 40.0 nM, DDE = dose-dependent effect
[10] = target: T1, Signal transducer and activator of transcription 3; experiment: Inhibition of STAT3 phosphorylation at Tyr705 residue in human AGS cells incubated upto 24 hrs by Western blotting analysis; type: cell-based; conditions: dose <= 40.0 nM, DDE = dose-dependent effect
MKN-45 [11] = experiment: Inhibition of mitochondrial respiration in STAT3 knockdown human MKN-45 cells assessed as oxygen consumption rate incubated for 80 mins […]; type: functional, cell-based
MKN-45 [12] = experiment: Antitumor activity against human MKN-45 cells xenografted in BALB/c nude mouse assessed as reduction in Ki67 gene expression at 25 to 50 mg/kg, po qd administered for 5 weeks immunohistochemical analysis; type: functional, organism-based; conditions: dose 25-50 mg/kg
MKN-45 [13] = experiment: Induction of apoptosis in human MKN-45 cells assessed as viable cells at 20 nM incubated for 48 hrs by FITC-annexin V/propidium iodide staining based flow cytometry (reference value: 68%); type: functional; conditions: read-out: Activity
[14] = Toxicity in BALB/c nude mouse xenografted with human MKN-45 cells assessed as spleen damage at 25 to 50 mg/kg, po qd administered for 5 weeks by H and E staining based analysis; type: organism-based; conditions: in vivo, 840 h, dose 25-50 mg/kg
MKN-45 [15] = experiment: Induction of apoptosis in human MKN-45 cells assessed as necrotic cells 20 nM incubated for 48 hrs by FITC-annexin V/propidium iodide staining based flow cytometry (reference value: 10.3%); type: functional
[16] = target: T1, Signal transducer and activator of transcription 3; experiment: Binding affinity to human STAT3 transfected in MKN-45 cells assessed as change in melting temperature at 5 uM by thermal shift assay; type: cell-based
[17] = target: T1, Signal transducer and activator of transcription 3; experiment: Inhibition of IL-6 induced STAT3 phosphorylation at Tyr705 residue in human MGC-803 cells at 40 nM preincubated for 24 hrs followed by IL-6 stimulation and measured after 30 min by Western blotting analysis; type: cell-based; conditions: time 24.5 hrs
AGS [18] = experiment: Induction of apoptosis in human AGS cells assessed as viable cells at 20 nM incubated for 48 hrs by FITC-annexin V/propidium iodide staining based flow cytometry (reference value: 87.2%); type: functional; conditions: read-out: Activity
[19] = target: T1, Signal transducer and activator of transcription 3; experiment: Inhibition of STAT3 in human MGC-803 cells assessed as downregulation of c-Myc expression up to 40 nM by western blot analysis; type: cell-based; conditions: time <= 24.0 hrs, DDE = dose-dependent effect
[20] = target: T1, Signal transducer and activator of transcription 3; experiment: Inhibition of phosphorylated STAT3 nuclear translocation at Tyr705 residue in human MKN-45 cells measured at 5 to 40 nM by immunoblotting analysis; type: cell-based; conditions: dose 5-40 nM
MKN-45 [21] = experiment: In vivo inhibition of STAT3 in human MKN-45 cells xenografted in BALB/c nude mouse assessed as reduction in c-myc gene expression at 25 to 50 mg/kg, po qd administered for 5 weeks by Western blot analysis; type: functional, organism-based; conditions: dose 25-50 mg/kg
Cytochrome P450 1A2 = target: T2, Cytochrome P450 1A2 (Homo sapiens, UniProt P05177); experiment: Inhibition of CYP1A2 in human liver microsome; type: ADME, microsomes
T2 sequence (P05177 whole entry): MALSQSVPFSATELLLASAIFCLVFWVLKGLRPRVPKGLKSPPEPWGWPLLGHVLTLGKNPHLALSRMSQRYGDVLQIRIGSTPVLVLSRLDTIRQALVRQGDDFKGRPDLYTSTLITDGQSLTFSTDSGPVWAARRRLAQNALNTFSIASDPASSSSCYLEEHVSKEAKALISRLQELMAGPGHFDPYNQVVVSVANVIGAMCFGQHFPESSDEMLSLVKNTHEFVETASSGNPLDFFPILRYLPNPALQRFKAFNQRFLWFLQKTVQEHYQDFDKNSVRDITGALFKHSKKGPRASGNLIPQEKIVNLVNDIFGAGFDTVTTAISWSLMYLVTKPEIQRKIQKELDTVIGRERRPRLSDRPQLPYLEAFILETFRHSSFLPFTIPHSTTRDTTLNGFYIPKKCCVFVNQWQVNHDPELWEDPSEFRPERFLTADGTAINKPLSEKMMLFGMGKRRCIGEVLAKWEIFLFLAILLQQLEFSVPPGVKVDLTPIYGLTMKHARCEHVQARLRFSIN

[22] = Toxicity in […] mouse xenografted with human MKN-45 cells assessed as liver damage at 25 to 50 mg/kg, po qd administered for 5 weeks by H and E staining based analysis; type: organism-based; conditions: in vivo, 840 h, dose 25-50 mg/kg
AGS [23] = experiment: Induction of apoptosis in human AGS cells assessed as early apoptic cells 5 nM incubated for 48 hrs by FITC-annexin V/propidium iodide staining based flow cytometry (reference value: 0.55%); type: functional
MKN-45 [24] = experiment: Induction of apoptosis in human MKN-45 cells assessed as viable cells at 5 nM incubated for 48 hrs by FITC-annexin V/propidium iodide staining based flow cytometry (reference value: 68%); type: functional; conditions: read-out: Activity
MGC-803 = experiment: Inhibition of colony formation in STAT3 knockdown human MGC-803 cells assessed as reduction in number of colonies incubated for 5 to 7 days by crystal violet staining based assay; type: functional, cell-based; conditions: time 5-7 day
AGS [25] = experiment: Induction of apoptosis in human AGS cells assessed as late apoptic cells 10 nM incubated for 48 hrs by FITC-annexin V/propidium iodide staining based flow cytometry (reference value: 9.56%); type: functional
[26] = target: T1, Signal transducer and activator of transcription 3; experiment: Inhibition of STAT3 phosphorylation at Ser727 residue in human AGS cells incubated upto 24 hrs by Western blotting analysis; type: cell-based; conditions: dose <= 40.0 nM, DDE = dose-dependent effect
Cytochrome P450 2C9 = Cytochrome P450 2C9 (Homo sapiens, UniProt P11712); experiment: Inhibition of CYP2C9 in human liver microsome; type: ADME, microsomes
Cytochrome P450 2C9, sequence (P11712 whole entry): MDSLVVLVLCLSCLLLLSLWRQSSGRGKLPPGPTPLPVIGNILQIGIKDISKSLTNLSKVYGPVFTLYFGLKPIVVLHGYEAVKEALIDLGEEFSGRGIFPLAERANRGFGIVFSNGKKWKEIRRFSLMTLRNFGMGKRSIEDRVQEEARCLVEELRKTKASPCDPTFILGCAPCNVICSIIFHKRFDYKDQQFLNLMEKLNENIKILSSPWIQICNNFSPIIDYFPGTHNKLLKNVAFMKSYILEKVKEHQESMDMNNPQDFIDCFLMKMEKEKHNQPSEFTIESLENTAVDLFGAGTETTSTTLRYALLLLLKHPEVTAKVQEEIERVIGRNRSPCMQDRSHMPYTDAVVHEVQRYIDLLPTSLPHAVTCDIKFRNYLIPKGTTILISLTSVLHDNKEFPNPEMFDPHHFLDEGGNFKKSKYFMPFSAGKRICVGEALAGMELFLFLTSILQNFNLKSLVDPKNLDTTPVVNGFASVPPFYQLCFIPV

Structure (SMILES): O=C(c1ccc(-c2noc(-c3ccc(C(F)(F)F)cc3)n2)cc1)N1CCN(Cc2ccc(OCC(F)(F)F)cc2)CC1
- inhibition (AGS [1]): Dde
- inhibition [2]: 100%
- bioavailability [3]: 54.4%
- Vd [4]: 5.76 L/kg
- Activity (MKN-45 [5]): 8.54%
- Cmax [6]: 529 ng/mL
- Activity [7]: Non-Toxic
- IC50 [8]: 0.0278 µM
- inhibition [9]: Dde
- inhibition [10]: Dde
- inhibition (MKN-45 [11]): Active
- Activity (MKN-45 [12]): Active
- viability at 0.02 µM (MKN-45 [13]): 60.7%
- Activity [14]: Non-Toxic
- Activity (MKN-45 [15]): 11.3%
- Activity [16]: Active
- inhibition [17]: Active
- viability at 0.02 µM (AGS [18]): 50.3%
- inhibition [19]: Dde
- inhibition [20]: Active
- inhibition (MKN-45 [21]): Active
- IC50 (Cytochrome P450 1A2): > 50 µM
- Activity [22]: Non-Toxic
- Activity (AGS [23]): 2.7%
- viability at 0.005 µM (MKN-45 [24]): 69.6%
- inhibition (MGC-803): Active
- Activity (AGS [25]): 10.4%
- inhibition [26]: Dde
- IC50 (Cytochrome P450 2C9): 22.9 µM
